According to paper PMC5983452 (PLoS ONE, 2018):
Values joined by “and” are separate entries in the source; they are usually repeats but may differ in a detail not shown here. Equal values may be shown once. “Also recorded” adds a separate entry of the source. Where a name gives a salt, the structure may show the parent alone.

Assays:
A549 cells = test: Trametinib growth inhibition in combination with EPZ028862; assay type: cell-based; conditions: 2, 5 and 7 days
Description: Plotted data is the average of three biological replicates. Error bars represent standard deviation. (PDF) Click here for additional data file.

in vitro [1] = assay type: in vitro ADME; conditions: plasma
Procedure: (§1) After stirred for 30 min at 25 °C, NaBH3CN […]
(§2) mixture was concentrated under vacuum. […] The combined organic […]
(§3) The crude product was further
(§4) The fractions containing product were combined and concentrated. […]
(§5) cyclopropylisoxazole-3-carboxamide hydrochloride as a light yellow solid.
(§6) Media was changed every two or three days. On
(§7) 95% at 37°C. […] Cells were
(§8) At 120 min the companion plate was
(§9) Permeability was assessed in duplicate, on two […]
(§10) different occasions. […] Compounds were quantified by LC-MS/MS analysis using a 5 point calibration curve.
(§11) The permeability coefficient
(§12) Solutions of test compounds (1 µM, 0.5% final
(§13) Incubations were performed in
(§14) Haloperidol was incubated in parallel as the control compound for each species.
(§15) (7 points) and protein containing solutions (6 points).
(§16) Liver microsome (LM) stability. […]
(§17) the reaction. The final incubation volume was 50 µL. Negative control incubations were included where phosphate buffer was […]
(§18) min. The negative controls were incubated for 45 min only. […]
(§19) µL methanol at the appropriate time points.
(§20) Subsequently, intrinsic CL (CLint) was […]

[2] = assay type: in vitro ADME; conditions: plasma
Procedure: as §1, §2, §3, §4, §5, §6, §7, §8, §9, §10, §11, §12, §13, §14, §15, §16, §17, §18, §19, §20

in vitro [3] = assay type: in vitro ADME, CD-1 mice; conditions: male, CD-1, mouse, microsomes, pH 7.4
in vitro [4] = assay type: in vitro ADME, cyno-monkeys; conditions: male, monkey, microsomes, pH 7.4
[5] = Hepatocyte stability, monkey; assay type: in vitro ADME, cyno-monkeys; conditions: male, cryopreserved hepatocytes, read-out: CLint measured with hepatocytes, Monkey
[6] = Dog pharmacokinetic study; assay type: in vivo, male beagle dogs; conditions: male Beagle
Procedure: 2. […] Food was returned 4 hours after dosing. […] 4. […] Food was returned 4 hours after dosing. […] Supplemental Results:SMYD2 compound characterization […] The […] nM (Figure S8A).

[7] = Plasma protein binding (equilibrium dialysis), human; conditions: pH 7.4, Human fu (unbound fraction)
Procedure: Caco-2 permeability. Caco-2 cells (obtained from the ATCC), between passage numbers 40 to 60, were seeded onto Millipore
Multiscreen plates at 1x10^5 cells/cm2 in Dulbecco's Modified Eagle Medium. Media was changed every two or three days. On
Day 20, the permeability study was performed using Hanks Balanced Salt Solution (HBSS) pH 7.4 buffer with 25 mM HEPES and
Incubations were carried out in an atmosphere of 5% CO2 with a relative humidity of
The monolayers were prepared by rinsing both basolateral and apical surfaces twice with HBSS at 37°C. Cells were
then incubated with HBSS in both apical and basolateral compartments for 40 min to stabilize physiological parameters. HBSS […]
removed and apical and basolateral samples diluted for analysis by LC-MS/MS. Permeability was assessed in duplicate, on two
different occasions. […] Compounds were quantified by LC-MS/MS analysis using a 5 point calibration curve. The starting concentration (C0) was determined from the dosing solution and
experimental recovery calculated from C0 and both apical and basolateral compartment concentrations. […]
(Papp) for each compound was calculated as: (dQ/dt)/(C0xA), where dQ/dt is the rate of permeation of the drug across the cells, C0 […]
Plasma protein binding. Plasma protein binding was assessed by equilibrium dialysis utilizing the HT-dialysis cell format with a […]

SMYD2 = SMYD2 (Homo sapiens, UniProt Q9NRG4); test: ITC binding assay EPZ033294/SMYD2; design: Full length FLAG-SMYD2 and C-terminally Avi-tagged full length SMYD2 (SMYD2-Avi) were cloned into pFastbac vectors; FLAG (N); His tag with TEV cleavage site (N, cleaved yes); made in house; host or cells: Sf9 insect cells (baculovirus); conditions: 25°C
Procedure: The assay buffer contained 20 mM Tris-HCl pH 8.0, 100 mM sodium chloride, 1 mM TCEP, 5% glycerol, 50 μM S-adenosylmethionine (SAM), and 0.1% DMSO. […] The assay background signal was generated by injecting compound into buffer in the absence of enzyme and subtracted from the experimental data. The binding isotherm was fitted using the single site model in the Origin software for data analysis (OriginLab, Northampton, MA).

Chain of SMYD2 (Q9NRG4 whole entry): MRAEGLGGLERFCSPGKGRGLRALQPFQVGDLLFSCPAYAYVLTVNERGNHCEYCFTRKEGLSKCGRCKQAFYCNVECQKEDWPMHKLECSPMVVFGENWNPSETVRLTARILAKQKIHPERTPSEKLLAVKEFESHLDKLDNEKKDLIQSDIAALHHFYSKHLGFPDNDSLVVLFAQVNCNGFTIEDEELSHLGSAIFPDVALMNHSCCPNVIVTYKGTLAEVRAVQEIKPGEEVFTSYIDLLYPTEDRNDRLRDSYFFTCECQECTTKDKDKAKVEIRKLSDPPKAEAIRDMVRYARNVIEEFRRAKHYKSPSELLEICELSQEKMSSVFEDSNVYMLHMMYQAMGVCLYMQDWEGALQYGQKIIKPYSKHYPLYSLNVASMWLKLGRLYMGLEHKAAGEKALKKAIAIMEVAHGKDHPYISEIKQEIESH

| fraction unbound at 16 h, 1 µM [7] | stoichiometry of binding (N) by ITC (SMYD2) | Kd (SMYD2; 50 μM SAM, three test occasions, read-out: dissociation constant KD by ITC) [nM] | SMILES | effect of 1 μM EPZ028862 on growth inhibition by trametinib (A549 cells) | fraction unbound at 16 h, 1 µM (in vitro [1]; dog, pH 7.4) | fraction unbound at 16 h, 1 µM (in vitro [1]; rat, pH 7.4, Rat fu (unbound fraction)) | Monkey fu (unbound fraction) [2] | microsomal CLint at 1 µM (in vitro [3]) [µL/min/mg] | microsomal CLint at 1 µM (in vitro [4]) [µL/min/mg] | hepatocyte CLint at 1 µM [5] [µL/min/1e6 cells] | MRT ([6]; plasma, IV 1 mg/kg, PO 5 mg/kg) [h] | bioavailability ([6]; plasma, IV 1 mg/kg, PO 5 mg/kg) [%] | half-life ([6]; plasma, IV 1 mg/kg, PO 5 mg/kg) [h] | clearance ([6]; plasma, IV 1 mg/kg, read-out: CLp) [L/h/kg] | Vd ([6]; plasma, IV 1 mg/kg, read-out: Vss) [L/kg] | Tmax ([6]; plasma, PO 5 mg/kg) [h] | CL renal ([6]; urine and plasma, IV 1 mg/kg) [L/h/kg] |
| --- | --- | --- | --- | --- | --- | --- | --- | --- | --- | --- | --- | --- | --- | --- | --- | --- | --- |
|  |  |  | NC1CCC(S(=O)(=O)N2C3CCC2CC(NC(=O)c2cc(C4CC4)on2)C3)CC1 [EPZ028862, N-((1R,3R,5S)-8-((1r,4R)-4-aminocyclohexylsulfonyl)-8-aza-bicyclo[3.2.1]octan-3-yl)-5-cyclopropylisoxazole-3-carboxamide hydrochloride] | unaffected; also recorded: no effect | 0.82 | 0.64 | highly bound | 3.3 | 3.2 | 3.2 | 7 ± 0.2 | 70 ± 6 | 5.4 ± 0.1 | 0.834 ± 0.072 | 5.8 ± 0.6 | 1.5 ± 0.9 | 0.118 ± 0.0228 |
| 0.13 | 0.7 ± 1 and 0.7 | 8.3 ± 8.2 | O=C(NC1CN(Cc2cnn(Cc3ccc(Cl)cc3)c2)C1)c1cn(C2CC2)nn1 [EPZ033294] |  |  |  |  |  |  |  |  |  |  |  |  |  |  |
